According to patent publication US11464762B2, “Carcinogenesis inhibitor” (NATIONAL CANCER CENTER, priority 2017, dated 2022):

Columns and labels:
[1] = Feed and body weight of Min mice during the administration period; format: in vivo, mouse; conditions: 500 and 1000 ppm in feed for eight weeks versus control group
Description: (§1) The experimental animals were randomly classified into a control group, a group to which 500 ppm of a test substance was administered and a group to which 1000 ppm of a test substance was administered. In each group, 10 mice per group were organized in such a manner that average body weight in the group became same. The control group was administered with a basic feed only and each of the 500 ppm test substance-administering group and the 1000 ppm test substance-administering group was administered with a mixed feed of a test substance (Compound 21) in 500 and 1000 ppm concentrations, respectively for eight weeks.

cyclin D1 = assay: Expression level of cell proliferation-associated factor mRNA (realtime-PCR), cyclin D1; format: in vivo, mouse; conditions: non-polyp part of small intestine mucosa, Min mice, 1000 ppm in feed, GAPDH-normalised, control group = 1.00, n=3
Description: (§2) (1) mRNA Extraction from the Intestinal Polyp Part and Non-Polyp Part, and cDNA Synthesis
(§3) TRIsol (Invitrogen) (500 μL) was added to a polyp part and a non-polyp part of small intestine mucosa of mouse of the control group and the 1000 ppm test substance-administering group scraped in Test Example 1. After 100 μL of chloroform was added thereto and mixed therewith, the mixture was centrifuged (12000 rpm for 2 minutes) and the supernatant liquid was recovered therefrom. The recovered supernatant liquid was added 250 μL of ethanol and RNA was extracted therefrom and purified using a column (QIAGEN).
(§4) After DNAse (Invitrogen) treatment, cDNA was prepared from 1 μg of the total RNA using High-Capacity cDNA Reverse Transcription Kits (Applied Biosystems). […]
(§5) Expression level of mRNA of the cell proliferation-associated factors [c-Myc, CDK4 and cyclin D1] was measured by a realtime-PCR method using the cDNA being synthesized from the total RNA extracted in the above (1). With regard to the polyp part, the mRNA expression level only of c-Myc was measured.
(§6) As to the PCR primers for each of the cell proliferation-associated factors, there were used c-Myc [Forward: […] […] Each of the resulted measured values was divided by the measured value of the glyceraldehyde-3-phosphate dehydrogenase (GAPDH) gene which was an internal standard whereupon the relative values were calculated. […]

[2] = test system: intestinal polyps of C57BL/6-Apc^Min/+ mouse (Min mouse); assay: Evaluation of intestinal polyp formation in Min mice; format: in vivo; conditions: for Number of intestinal polyp, colon / Number of intestinal polyp, small intestine distal segment / Number of intestinal polyp, small intestine middle segment / Number of intestinal polyp, small intestine proximal segment / Number of intestinal polyp, total: mean
Text: (1) Grouping of Experimental Animals and Administration of a Test Substance
As to an experimental animal, there was used a C57BL/6-Apc^Min/+ mouse (Min mouse) which was a familial adenomatosis coli model. The Min mouse is an Apc (adenomatous polyoisis coli) mutant mouse and an increase in polyp numbers is noted therein with time. It has been also known that the Min mouse is occurred with dyslipidemia in a state of highly oxidative stress. 5-week-old male Min mice were bred and acclimatized in a plastic cage (235×325×170 H mm) (six mice in maximum in a cage) in a laboratory where the temperature, the humidity and the brightness/darkness cycle were set at 24±2° C., 55% and 12 hours, respectively. In the meanwhile, they were freely ingested with filtered water and basic feed (MN-76A, CLEA Japan Inc.).
as §1
(2) Measurement of Numbers of Polyps in the Intestinal Tract
The mice in each group were killed under anesthetization at 13 weeks old and, after laparotomy, the intestinal tract was excised and fixed with formalin. Small intestine was divided into proximal segment (the segment in about 4 cm length from pylorus), middle segment and distal segment, then the polyp numbers in the four segments including colon were counted under a stereomicroscope and the mean value in each group was calculated.

[3] = test system: PCNA antibody-positive cells in polyp part of mouse small intestine mucosa; assay: Cell proliferation ability in polyp part of intestinal mucosa (PCNA immunostaining); format: in vivo; conditions: Min mice, 1000 ppm in feed, n = 14 (control group 71.26)
Description: The formalin-fixed slices embedded in paraffin prepared from the polyp part of mouse small intestine mucosa of the control group and of the 1000 ppm test substance-administering group being excised in Test Example 1 were dipped in xylene for five minutes×three times for the purpose of deparaffinization and were dipped in 99.5% alcohol for five minutes×three times to enhance the hydrophilicity followed by dipping into distilled water for 10 minutes. After that, the slices were dipped into a methanol solution containing 0.3% of hydrogen peroxide to conduct a deactivation treatment for the endogenous peroxidase. Further, 1 mL of a 0.3% Triton [Registered trade mark] X-100 solution containing 2% of horse serum (a phosphate-buffered saline (PBS) containing 0.3% of Triton) followed by blocking for 30 minutes.
To the slices was added an anti-mouse proliferating cell nuclear antigen (PCNA) antibody (Calbiochem [Registered trade mark]) diluted to an extent of 100 times and a primary antibody response was conducted overnight at 4° C. […] The ratio of the PCNA antibody-positive cell numbers to the total cell numbers in the microscopic field in each group was also calculated. […]

[4] = Evaluation of safety, repeated oral administration to healthy male adults; format: in vivo, human; conditions: oral 400 mg single dose, 17 administrations over seven days, six cases
Description: Eight healthy male adults (21 to 24 years age) (consisting of six cases being administered with the test substance and two cases being administered with the placebo) were used as the subjects and the present compound was orally administered repeatedly to evaluate the safety. A test substance (Compound 21) was orally administered in the single dose of 400 mg in such a manner that, on the first and the seventh day of the administration, once-daily in the morning on an empty stomach and, on the second to the sixth days of the administration, thrice-daily on an empty stomach (at 09:00, 14:00 and 19:00) together with 150 mL of water each (17 administrations in total).

c-Myc = assay: Expression level of cell proliferation-associated factor mRNA (realtime-PCR), c-Myc; format: in vivo, mouse; conditions: Min mice, 1000 ppm in feed, GAPDH-normalised, control group = 1.00, n=3
Description: as §2, §3, §4, §5, §6

CDK4 = assay: Expression level of cell proliferation-associated factor mRNA (realtime-PCR), CDK4; format: in vivo, mouse; conditions: non-polyp part of small intestine mucosa, Min mice, 1000 ppm in feed, GAPDH-normalised, control group = 1.00, n=3
Description: as §2, §3, §4, §5, §6

[5] = 500 ppm in feed for eight weeks
[6] = 500 ppm in feed for eight weeks, n = 9
[7] = 1000 ppm in feed for eight weeks
[8] = 1000 ppm in feed for eight weeks, n = 8

SMILES: CN1C(=O)NC(=O)C1O (stereo not shown) [Compound 21, 5-Hydroxy-1-methylhydantoin]
- Difference in the feed and in the body weight among the groups during the administration period [1]: No significant difference
- Ratio of expression quantity of cell proliferation-associated factor Cyclin D1 (cyclin D1): 0.27
- Decrease of polyp numbers in the middle segment of small intestine as compared with the control group [2, 5]: about 37%
- Decrease of total numbers of polyps as compared with the control group [2, 5]: about 17%
- Number of intestinal polyp, colon [2, 6]: 1.00
- Number of intestinal polyp, small intestine distal segment [2, 6]: 27.00
- Number of intestinal polyp, small intestine middle segment [2, 6]: 7.33
- Number of intestinal polyp, small intestine proximal segment [2, 6]: 3.89
- Number of intestinal polyp, total [2, 6]: 39.22
- Decrease of polyp numbers in the middle segment of small intestine as compared with the control group [2, 7]: ~29%
- Decrease of total numbers of polyps as compared with the control group [2, 7]: about 17%
- Number of intestinal polyp, colon [2, 8]: 0.38
- Number of intestinal polyp, small intestine distal segment [2, 8]: 25.63
- Number of intestinal polyp, small intestine middle segment [2, 8]: 8.25
- Number of intestinal polyp, small intestine proximal segment [2, 8]: 5.13
- Number of intestinal polyp, total [2, 8]: 39.38
- Ratio of the PCNA antibody-positive cell numbers to the total cell numbers [3]: 58.40%
- Abnormal variation in blood pressure, pulse rate, body temperature, hematological test, blood biochemical test and urinary test [4]: no abnormal variation suspected to be related to the present compound
- Clinical symptoms suspected to be related to the compound [4]: no clinical symptom suspected to be related to the present compound
- Ratio of expression quantity of cell proliferation-associated factor c-Myc (c-Myc; non-polyp part of small intestine mucosa): 0.25
- Ratio of expression quantity of cell proliferation-associated factor c-Myc (c-Myc; polyp part of small intestine mucosa): 0.39
- Ratio of expression quantity of cell proliferation-associated factor CDK4 (CDK4): 0.47
